Molecules are shown by their SMILES.

Series [1] concerns the target T1, human TLR7 (Homo sapiens, UniProt Q9NYK1).
T1 sequence (Q9NYK1 27-1049): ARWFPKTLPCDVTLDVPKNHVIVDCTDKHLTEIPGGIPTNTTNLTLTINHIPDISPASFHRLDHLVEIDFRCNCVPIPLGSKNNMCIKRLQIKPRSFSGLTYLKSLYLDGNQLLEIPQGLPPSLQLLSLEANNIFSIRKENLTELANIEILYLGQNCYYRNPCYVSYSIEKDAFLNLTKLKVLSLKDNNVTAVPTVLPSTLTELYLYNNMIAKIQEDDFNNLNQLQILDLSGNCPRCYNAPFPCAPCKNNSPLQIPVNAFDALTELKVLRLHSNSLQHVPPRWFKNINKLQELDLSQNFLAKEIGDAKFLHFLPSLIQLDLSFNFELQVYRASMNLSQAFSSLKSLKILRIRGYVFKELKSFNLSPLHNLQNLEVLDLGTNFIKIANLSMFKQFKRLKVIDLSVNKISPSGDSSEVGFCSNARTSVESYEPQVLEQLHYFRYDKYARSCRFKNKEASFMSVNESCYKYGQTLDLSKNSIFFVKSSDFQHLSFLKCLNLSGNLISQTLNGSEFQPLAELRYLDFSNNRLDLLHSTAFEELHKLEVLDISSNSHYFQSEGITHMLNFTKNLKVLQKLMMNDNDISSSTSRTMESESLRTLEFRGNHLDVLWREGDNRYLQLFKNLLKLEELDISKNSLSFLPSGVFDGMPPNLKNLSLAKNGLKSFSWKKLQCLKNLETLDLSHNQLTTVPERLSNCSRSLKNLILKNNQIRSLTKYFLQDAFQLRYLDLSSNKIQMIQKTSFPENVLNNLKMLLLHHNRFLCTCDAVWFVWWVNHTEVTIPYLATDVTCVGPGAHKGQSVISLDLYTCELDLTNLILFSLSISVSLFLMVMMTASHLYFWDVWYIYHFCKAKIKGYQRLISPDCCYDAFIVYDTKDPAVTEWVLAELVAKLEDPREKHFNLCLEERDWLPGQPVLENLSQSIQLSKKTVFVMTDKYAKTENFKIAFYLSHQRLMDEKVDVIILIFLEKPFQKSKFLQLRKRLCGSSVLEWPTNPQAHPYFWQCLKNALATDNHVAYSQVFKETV
Description: HEK293-Blue-hTLR-7 cells assay (SEAP reporter, R848 stimulation). The settings on record: HEK293-Blue-hTLR7 cells, R848, 20 hrs incubation; read-out: HEK/hTLR7 IC50. Type of series: cell-based. As for the experimental part: The following tests were carried out in order to determine the activity of the compounds of formula (I), (Ia) or (Ib) in HEK293-Blue-hTLR-7/8/9 cells assay.
HEK293-Blue-hTLR-7 Cells Assay:
A stable HEK293-Blue-hTLR-7 cell line was purchased from InvivoGen (Cat.#: hkb-htlr7, San Diego, Calif., USA). These cells were originally designed for studying the stimulation of human TLR7 by monitoring the activation of NF-κB. A SEAP (secreted embryonic alkaline phosphatase) reporter gene was placed under the control of the IFN-β minimal promoter fused to five NF-κB and AP-1-binding sites. The SEAP was induced by activating NF-κB and AP-1 via stimulating HEK-Blue hTLR7 cells with TLR7 ligands. Therefore the reporter expression was declined by TLR7 antagonist under the stimulation of a ligand, such as R848 (Resiquimod), for incubation of 20 hrs. The cell culture supernatant SEAP reporter activity was determined using QUANTI-Blue™ kit (Cat.#: rep-qb1, Invivogen, San Diego, Ca, USA) at a wavelength of 640 nm, a detection medium that turns purple or blue in the presence of alkaline phosphatase.
HEK293-Blue-hTLR7 cells were incubated at a density of 250,000˜450,000 cells/mL in a volume of 170 μL in a 96-well plate in Dulbecco's Modified Eagle's medium (DMEM) containing 4.5 g/L glucose, 50 U/mL penicillin, […], […], 2 mM L-glutamine, 10% (v/v) heat-inactivated fetal bovine serum with addition of 20 μL test compound in a serial dilution in the presence of final DMSO at 1% and 10 μL of 20 uM R848 in above DMEM, perform incubation under 37° C. in a CO2 incubator for 20 hrs. Then 20 μL of the supernatant from each well was incubated with 180 μL Quanti-blue substrate solution at 37° C. for 2 hrs and the absorbance was read at 620-655 nm using a spectrophotometer. The signaling pathway that TLR7 activation leads to downstream NF-κB activation has been widely accepted, and therefore similar reporter assay was modified for evaluating TLR7 antagonist.

Series [2] can be described thus: Human microsomal stability assay. Type of series: in vitro ADME. The settings on record: human liver microsomes, 1 μM test compound, 0.5 mg/mL protein, 37° C.; low <7.0, medium 7.0-16.2, high 16.2-23.2 mL/min/kg. As for the experimental part:
Human Microsomal Stability Assay
Human liver microsomes (Cat.NO.: 452117, Corning, USA) were preincubated with test compound for 10 minutes at 37° C. in 100 mM potassium phosphate buffer, pH 7.4. The reactions were initiated by adding NADPH regenerating system. The final incubation mixtures contained 1 μM test compound, 0.5 mg/mL liver microsomal protein, 1 mM MgCl2, 1 mM NADP, 1 unit/mL isocitric dehydrogenase and 6 mM isocitric acid in 100 mM potassium phosphate buffer, pH 7.4. After incubation times of 0, 3, 6, 9, 15 and 30 minutes at 37° C., 300 μL of cold ACN (including internal standard) was added to 100 μL incubation mixture to terminate the reaction. Following precipitation and centrifugation, 100 uL supernatant will be taken out and added 300 uL water. The amount of compound remaining in the samples was determined by LC-MS/MS. Controls of no NADPH regenerating system at zero and 30 minutes were also prepared and analyzed. The results were categorized as: low (<7.0 mL/min/kg), medium (7.0-16.2 mL/min/kg) and high (16.2-23.2 mL/min/kg).

As for `C[C@@H]1CN(c2ccc(C#N)c3ncccc23)C[C@@H]2Cc3cc(N4C[C@@H]5CNCCN5C4=O)ccc3CN21` (single isomer, unassigned) [Example 17A], the IC50 in series [1] came to 10.3 nM. On the same count and under the same terms, in the case of `C[C@@H]1CN(c2ccc(C#N)c3ncccc23)C[C@@H]2Cc3cc(N4C[C@H]5CNCCN5C4=O)ccc3CN21` (single isomer, unassigned) [Example 17B] it was 10.3 nM. `C[C@@H]1CN(c2ccc(C#N)c3ncccc23)C[C@@H]2Cc3cc(N4CC5NCCOC5C4)ccc3CN21` (stereo in doubt) [Example 10, 5-[(4R,11aS)-9-[(4aS,7aS)-3,4,4a,5,7,7a-hexahydro-2H-pyrrolo[3,4-b][1,4]oxazin-6-yl]-4-methyl-1,3,4,6,11,11a-hexahydropyrazino[1,2-b]isoquinolin-2-yl]quinoline-8-carbonitrile]: the “CL(h)” value in series [2] was 9.3 mL/min/kg. Moreover, the IC50 in series [1] came to 21.8 nM. With `C[C@@H]1CN(c2ccc(C#N)c3ncccc23)C[C@@H]2Cc3ccc(N4CCOCC(N)C4)cc3CN21` (stereo partly drawn) [Example 1, 5-[(4R,11aS)-8-(6-amino-1,4-oxazepan-4-yl)-4-methyl-1,3,4,6,11,11a-hexahydropyrazino[1,2-b]isoquinolin-2-yl]quinoline-8-carbonitrile], in series [1], the IC50 was 71.6 nM.

On to `C[C@@H]1CN(c2ccc(C#N)c3ncccc23)C[C@@H]2Cc3ccc(NCCN4CC[C@H](O)C4)cc3CN21` [Example 2, 5-[(4R,11aS)-8-[2-[(3S)-3-hydroxypyrrolidin-1-yl]ethylamino]-4-methyl-1,3,4,6,11,11a-hexahydropyrazino[1,2-b]isoquinolin-2-yl]quinoline-8-carbonitrile], for which, in series [1], the IC50 came out at 53.1 nM. Still for that read-out and setting: as for `C[C@@H]1CN(c2ccc(C#N)c3ncccc23)C[C@@H]2Cc3ccc(OCCN(C)C)cc3CN21` [Example 5, 5-[(4R,11aS)-8-[2-(dimethylamino)ethoxy]-4-methyl-1,3,4,6,11,11a-hexahydropyrazino[1,2-b]isoquinolin-2-yl]quinoline-8-carbonitrile], the figure is 38.2 nM.

In the case of `C[C@@H]1CN(c2ccc(C#N)c3ncccc23)C[C@@H]2Cc3cc(N[C@@H]4CNC[C@@H]4F)ccc3CN21` [Example 6, 5-[(4R,11aS)-4-methyl-9-[[(3R,4S)-4-fluoropyrrolidin-3-yl]amino]-1,3,4,6,11,11a-hexahydropyrazino[1,2-b]isoquinolin-2-yl]quinoline-8-carbonitrile], the “CL(h)” value in series [2] is given as 6.8 mL/min/kg. Besides, in series [1], the IC50 stood at 24.7 nM. Turning to `CO[C@H]1CNC[C@H]1Nc1ccc2c(c1)C[C@H]1CN(c3ccc(C#N)c4ncccc34)C[C@@H](C)N1C2` [Example 7, 5-[(4R,11aS)-9-[[(3R,4S)-4-methoxypyrrolidin-3-yl]amino]-4-methyl-1,3,4,6,11,11a-hexahydropyrazino[1,2-b]isoquinolin-2-yl]quinoline-8-carbonitrile], in series [1], the IC50 turned out to be 27.4 nM. On to `C[C@@H]1CN(c2ccc(C#N)c3ncccc23)C[C@@H]2Cc3cc(N4C[C@@H](F)[C@@H](N)C4)ccc3CN21` [Example 8, 5-[(4R,11aS)-9-[(3S,4R)-3-amino-4-fluoro-pyrrolidin-1-yl]-4-methyl-1,3,4,6,11,11a-hexahydropyrazino[1,2-b]isoquinolin-2-yl]quinoline-8-carbonitrile], for which the “CL(h)” value in series [2] is reported as 9.6 mL/min/kg. The IC50 in series [1] worked out at 35.5 nM. In the same order, the values of `CO[C@H]1CN(c2ccc3c(c2)C[C@H]2CN(c4ccc(C#N)c5ncccc45)C[C@@H](C)N2C3)C[C@H]1N` [Example 9, 5-[(4R,11aS)-9-[(3R,4S)-3-amino-4-methoxy-pyrrolidin-1-yl]-4-methyl-1,3,4,6,11,11a-hexahydropyrazino[1,2-b]isoquinolin-2-yl]quinoline-8-carbonitrile] are 8.8 mL/min/kg and 19.5 nM.

As for `C[C@@H]1CN(c2ccc(C#N)c3ncccc23)C[C@@H]2Cc3cc(OCCN(C)C)ccc3CN21` [Example 11, 5-[(4R,11aS)-9-[2-(dimethylamino)ethoxy]-4-methyl-1,3,4,6,11,11a-hexahydropyrazino[1,2-b]isoquinolin-2-yl]quinoline-8-carbonitrile], the IC50 in series [1] was 5.8 nM. The same measure, in the same setting: in the case of `C[C@@H]1CN(c2ccc(C#N)c3ncccc23)C[C@@H]2Cc3cc(OC[C@@H]4CCN4)ccc3CN21` [Example 12, 5-[(4R,11aS)-9-[[(2S)-azetidin-2-yl]methoxy]-4-methyl-1,3,4,6,11,11a-hexahydropyrazino[1,2-b]isoquinolin-2-yl]quinoline-8-carbonitrile] it was 18.2 nM. In the case of `C[C@@H]1CN(c2ccc(C#N)c3ncccc23)C[C@@H]2Cc3cc(N4CCN(C(=O)C(C)(C)N)CC4)ccc3CN21` [Example 13, 5-[(4R,11aS)-9-[4-(2-amino-2-methyl-propanoyl)piperazin-1-yl]-4-methyl-1,3,4,6,11,11a-hexahydropyrazino[1,2-b]isoquinolin-2-yl]quinoline-8-carbonitrile], the “CL(h)” value in series [2] turned out to be 7.6 mL/min/kg. In addition, the IC50 in series [1] came out at 18.6 nM. On to `C[C@@H]1CN(c2ccc(C#N)c3ncccc23)C[C@@H]2Cc3cc(N4C[C@@H]5C[C@H]4CN5C(=O)C(C)(C)N)ccc3CN21` [Example 15, 5-[(4R,11aS)-9-[(1S,4S)-5-(2-amino-2-methyl-propanoyl)-2,5-diazabicyclo[2.2.1]heptan-2-yl]-4-methyl-1,3,4,6,11,11a-hexahydropyrazino[1,2-b]isoquinolin-2-yl]quinoline-8-carbonitrile], for which the IC50 in series [1] came out at 2.4 nM.

`C[C@@H]1CN(c2ccc(C#N)c3ncccc23)C[C@@H]2Cc3cc(N4CC5CCNCC5C4=O)ccc3CN21` (stereo partly drawn) [Example 18, 5-[(4R,11aS)-4-methyl-9-(3-oxo-3a,4,5,6,7,7a-hexahydro-1H-pyrrolo[3,4-c]pyridin-2-yl)-1,3,4,6,11,11a-hexahydropyrazino[1,2-b]isoquinolin-2-yl]quinoline-8-carbonitrile]: the IC50 in series [1] was determined as 71.6 nM.

`C[C@@H]1CN(c2ccc(C#N)c3ncccc23)C[C@@H]2Cc3cc(N4CC5CNCCC5C4=O)ccc3CN21` (stereo partly drawn) [Example 19, 5-[(4R,11aS)-4-methyl-9-(1-oxo-3a,4,5,6,7,7a-hexahydro-3H-pyrrolo[3,4-c]pyridin-2-yl)-1,3,4,6,11,11a-hexahydropyrazino[1,2-b]isoquinolin-2-yl]quinoline-8-carbonitrile]: in series [1], the IC50 was found to be 53.1 nM.

The record behind these values is patent US20230002375A1, “HYDROPYRAZINO[1,2-B]ISOQUINOLINE COMPOUNDS FOR THE TREATMENT OF AUTOIMMUNE DISEASE” (Hoffmann-La Roche Inc., priority 2019, published 2023).
